Test results published in article PMC10272112 (Nature Communications, 2023).
Values joined by “and” are separate entries in the source; they are usually repeats but may differ in a detail not shown here. Identical values can stand only once.

Key:
HDAC4 = target: T1, HDAC4 (Homo sapiens, UniProt P56524); assay: Chemoproteomic competition pulldown assay with iC; type: binding; details: for relative binding vs DMSO: iC
T1 construct: endogenous in cells; host or cells: cell lysate
Experimental: (§1) To identify proteins directly bound by lipoic acid, we employed a chemoproteomic competition assay. Briefly, (R/S)-LA was immobilized on sepharose beads via an amidation reaction to form an affinity matrix (abbreviated as iL; Fig. 1a). This affinity matrix can be incubated with cell lysate to pull down potential LA or LM target proteins and identify these targets via bottom-up proteomics. In a competition assay, free LA or LM were incubated with lysate at different concentrations before pulling down and quantifying target proteins. […] (Fig. 1b, see “Methods” for details). […] The lysate buffer used in this assay contains 1 mM DTT to mimic the intracellular reductive milieu and to reduce lipoic acid and LM. […] Additional competition assays performed in lung adenocarcinoma cell A549 lysate also identified HDAC1, HDAC2, and HDAC6 as targets (Supplementary Fig. 1b). Amongst the three cell lines tested, HDACs were the only confidently identified targets across the 1500–3000 proteins quantified in these assays. […] We validated the results by analogous pulldown competition assays using two other affinity matrices prepared via the immobilization of either the HDAC inhibitor Quisinostat (iQ) and an analog of the class IIa HDAC inhibitor Bürli’s 31[14] (iC)[12]. We have previously shown that these affinity matrices specifically bind to the active sites of HDACs and have used them for HDACi selectivity profiling. Indeed, binding of (R/S)-LA and (R/S)-LM to HDAC1, HDAC2, HDAC3, HDAC6, and, to a lesser extent, HDAC8 was confirmed in these assays (Supplementary Fig. 1c, d). No binding to class IIa HDACs or the recently discovered common HDAC inhibitor off-target MBLAC2 was observed (Supplementary Fig. 1e)[12]. […] This observation might reflect electrostatic repulsion between the HDAC10 active site gate-keeper glutamic acid residues[15],[16] and the terminal carboxylic acid of LA.
(§2) To assess the degree of protein depletion from lysates by the affinity matrix, a second pulldown (PDPD) with fresh beads was performed using the unbound protein fraction from the vehicle control flow through. The beads were washed (1 × 1 mL of lysis buffer without inhibitors and only 0.4% Igepal, 2 × 2 mL of lysis buffer without inhibitors and only 0.2% Igepal), and captured proteins were denatured with 8 M urea buffer, alkylated with 55 mM chloroacetamide and digested with Trypsin according to standard procedures. The resulting peptides were desalted on a C18 filter plate (Sep-Pak® tC18 µElution Plate, Waters), vacuum dried, and stored at −20 °C until LC–MSMS measurement.
(§3) For the competition assays, relative binding was calculated based on the protein intensity ratio to the DMSO control for every single inhibitor concentration. EC50 values were derived from a four-parameter log-logistic regression with variable slope (constrain: bottom > 0). The obtained EC50 values were multiplied with a protein-dependent correction factor (cf), resulting in the apparent Kd value (Kd^app). The correction factor is determined by calculating the ratio of the protein intensity of two consecutive pulldowns of the vehicle control sample[13]. Targets of the inhibitors were annotated manually according to published procedures[12],[46],[47]. […] Additionally, the number of unique peptides and MSMS counts per condition were taken into account. Positive target binding across several independent experiments performed with different cell lysates further substantiated our confidence for a true positive drug-target binding event.

MBLAC2 = target: T2, MBLAC2 (Homo sapiens, UniProt Q68D91); assay: Chemoproteomic competition pulldown assay with iC; type: binding; details: for relative binding vs DMSO: iC
T2 construct: endogenous in cells; host or cells: cell lysate
T2 sequence (Q68D91 1-279): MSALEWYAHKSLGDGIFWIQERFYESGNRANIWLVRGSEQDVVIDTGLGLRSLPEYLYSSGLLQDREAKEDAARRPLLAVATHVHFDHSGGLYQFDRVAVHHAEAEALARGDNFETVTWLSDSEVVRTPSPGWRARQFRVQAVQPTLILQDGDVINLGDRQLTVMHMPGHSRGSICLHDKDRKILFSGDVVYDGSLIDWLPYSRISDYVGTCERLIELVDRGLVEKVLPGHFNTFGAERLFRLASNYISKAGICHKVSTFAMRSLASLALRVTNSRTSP
Experimental: as §1, §2, §3

HeLa S3 cells = assay: Global acetyl-lysine detection by Western blot; details: for relative lysine acetylation vs DMSO: HeLa S3, 1 mM, 16 h, replicates A/B
Experimental: HeLa S3 was grown in DMEM medium (PAN Biotech) supplemented with 10% FBS (PAN Biotech) and treated with drugs (final concentration of 0.1% DMSO) for indicated periods. […] The protein amount of cell lysates was determined by Bradford assay. […] Proteins were separated by SDS-PAGE and electro-transferred onto PVDF membranes. […] Acquisition and quantification of the band fluorescence intensities were carried out with the Odyssey (Licor) imaging system and corresponding software (v 3.0.29). Intensities of proteins were normalized to input beta-Actin and further normalized to the control treatments to calculate the relative acetylation change.

A549 cells = assay: CellRox deep red assay for ROS quantification (with or without arsenite); type: cell-based; details: sheet 4d
[1] = HeLa S3, time-dependent treatment, 5 mM

T1 sequence (P56524 whole entry): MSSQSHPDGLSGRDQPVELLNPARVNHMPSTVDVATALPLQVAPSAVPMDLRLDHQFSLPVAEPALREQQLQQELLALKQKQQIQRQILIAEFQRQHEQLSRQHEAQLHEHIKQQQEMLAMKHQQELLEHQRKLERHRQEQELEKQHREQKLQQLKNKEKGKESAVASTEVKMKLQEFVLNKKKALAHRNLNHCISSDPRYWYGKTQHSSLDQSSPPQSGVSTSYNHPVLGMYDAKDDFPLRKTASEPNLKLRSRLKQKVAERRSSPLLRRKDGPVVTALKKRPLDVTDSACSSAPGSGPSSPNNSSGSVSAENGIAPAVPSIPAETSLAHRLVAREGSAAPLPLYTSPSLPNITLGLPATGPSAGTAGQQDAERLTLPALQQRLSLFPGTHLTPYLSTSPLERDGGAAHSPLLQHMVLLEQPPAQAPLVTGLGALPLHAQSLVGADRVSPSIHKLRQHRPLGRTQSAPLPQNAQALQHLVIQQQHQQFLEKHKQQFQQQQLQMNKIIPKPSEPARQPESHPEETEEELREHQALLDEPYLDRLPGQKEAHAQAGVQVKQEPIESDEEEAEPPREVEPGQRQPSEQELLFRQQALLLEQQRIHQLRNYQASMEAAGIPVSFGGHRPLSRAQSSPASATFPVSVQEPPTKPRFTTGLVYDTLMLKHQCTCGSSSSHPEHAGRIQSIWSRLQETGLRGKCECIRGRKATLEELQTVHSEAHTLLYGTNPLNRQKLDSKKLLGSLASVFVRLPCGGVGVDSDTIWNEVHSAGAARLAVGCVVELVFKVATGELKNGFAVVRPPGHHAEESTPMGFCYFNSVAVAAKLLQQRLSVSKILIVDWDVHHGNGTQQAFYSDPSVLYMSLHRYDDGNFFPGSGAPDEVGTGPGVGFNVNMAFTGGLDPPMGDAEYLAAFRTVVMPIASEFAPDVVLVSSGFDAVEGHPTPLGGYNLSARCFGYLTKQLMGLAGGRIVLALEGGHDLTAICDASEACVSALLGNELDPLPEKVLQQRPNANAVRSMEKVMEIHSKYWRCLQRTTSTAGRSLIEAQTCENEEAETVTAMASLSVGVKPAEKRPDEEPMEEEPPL

O=C(O)CCCCC1CCSS1 (racemic) [(R/S)-LA, (R/S)-lipoic acid]
binding to class IIa HDACs (HDAC4; affinity matrix iC): No binding
relative binding vs DMSO (HDAC4; log10 M -3.52288): 1.609
relative binding vs DMSO (HDAC4; log10 M -4): 1.464
relative binding vs DMSO (HDAC4; log10 M -4.52288): 1.531
relative binding vs DMSO (HDAC4; log10 M -5): 1.518
relative binding vs DMSO (HDAC4; log10 M -5.52288): 1.32
relative binding vs DMSO (HDAC4; log10 M -6): 1.575
relative binding vs DMSO (HDAC4; log10 M -6.52288): 1.649
relative binding vs DMSO (HDAC4; log10 M -7): 1.276
binding to MBLAC2 (MBLAC2; affinity matrix iC): No binding
relative binding vs DMSO (MBLAC2; log10 M -3.52288): 0.9784
relative binding vs DMSO (MBLAC2; log10 M -4): 1.054
relative binding vs DMSO (MBLAC2; log10 M -4.52288): 1.366
relative binding vs DMSO (MBLAC2; log10 M -5): 1.348
relative binding vs DMSO (MBLAC2; log10 M -5.52288): 1.098
relative binding vs DMSO (MBLAC2; log10 M -6): 1.484
relative binding vs DMSO (MBLAC2; log10 M -6.52288): 0.5203
relative binding vs DMSO (MBLAC2; log10 M -7): 0.9131
relative lysine acetylation vs DMSO (HeLa S3 cells; 10-12 kDa bands): 5.9571 and 6.0208
relative lysine acetylation vs DMSO (HeLa S3 cells; 14-16 kDa bands): 4.6853 and 4.9960
relative lysine acetylation vs DMSO (HeLa S3 cells; 21-23 kDa bands): 2.3477 and 2.3498
relative lysine acetylation vs DMSO (HeLa S3 cells; 24-26 kDa bands): 2.1045 and 2.1971
relative lysine acetylation vs DMSO (HeLa S3 cells; 49-51 kDa bands): 6.4530 and 6.1942
relative lysine acetylation vs DMSO (HeLa S3 cells; 65-73 kDa bands): 5.8639 and 5.7630
time of peak acetylation (HeLa S3 cells; [1]): 3 to 8 h
time to upregulation of acetylation on a broad range of proteins (HeLa S3 cells; [1]): ≤ 1 h

NC(=O)CCCCC1CCSS1 (racemic) [(R/S)-LM, (R/S)-lipoamide]
ROS (CellRox), relative to DMSO -Ars., Mean (A549 cells; R/S-LM +Ars): 1.413
ROS (CellRox), relative to DMSO -Ars., replicate values (A549 cells; R/S-LM +Ars): 1.506 and 1.194 and 1.54
ROS (CellRox), relative to DMSO -Ars., Mean (A549 cells; R/S-LM -Ars): 1.131
ROS (CellRox), relative to DMSO -Ars., replicate values (A549 cells; R/S-LM -Ars): 1.077 and 0.9596 and 1.357
